Reference: patent publication US20110033930A1, “METHOD FOR OBTAINING NGN3-EXPRESSING CELLS AND INSULIN PRODUCING-BETA CELLS” (priority 2008, published 2011)
Where two headings read alike, the source gives them in different places.

Experiments:
[1] = tested on: E13.5 rat pancreatic explants; experiment: Real-time PCR of lineage markers in cultured pancreatic explants with HDACi; format: cell-based; settings: for Arx expression enhanced / Ngn3 expression peak, higher than in controls / increase in PP expression / increase in glucagon expression: day7; for SPP1 expression: especially after 5 and 7 days of culture; for Ngn3 expression profile: from day1; for Pax4 expression: over 7 days of culture; for increase in levels of Mist1 / increase in levels of P48 / increase in levels of amylase: vs control; for endocrine β/δ lineage: MS275 1 μM, NaB 125 μM
Source text: The first day post-coitum was taken as embryonic day 0.5 (E0.5). Pregnant female rats at 13.5 days of gestation were killed by CO2asphyxiation, according to the French Animal Care Committee's guidelines. Dorsal pancreatic buds from E13.5 rat embryos were dissected as described previously (2).
(§2) Organ culture, HDACi treatments, BrdU incorporation: Pancreases were laid on 0.45 μm filters (Millipore) at the air-medium interface in Petri dishes, containing RPMI 1640
RNA extraction and real-time PCR: Total RNA was extracted from pools of at least three pancreases using RNeasy Microkit (Qiagen) and reverse transcribed using Superscript reagents (Invitrogen). Real-time PCR was performed with the 7300 Fast real-time PCR System; each reaction consisted of a mix of Taqman® universal PCR master mix with a specific labelled probe (Applied Biosystem) (21). The comparative method of relative quantification (2^−ΔΔct) (38) was used to calculate expression levels of each target gene, normalized to peptidylpropyl isomerase A (ppia/cyclophilin A). The data are presented as fold changes in gene expression. At least three pools of explants were analyzed per condition and results are expressed as means±SEM. Statistical significance was determined using Student's t test.

[2] = tested on: E13.5 rat pancreatic explants; experiment: Dose finding of HDACi in organ culture (cell death); settings: TSA tested from 50 nM to 200 nM; data not shown
Experimental: (§1) (Invitrogen) supplemented with penicillin (100 U/mL), streptomycin (100 μg/mL), HEPES (10 mmol/L), L-glutamine (2mmol/L), non-essential amino acids (1x, Invitrogen) and 10% heat-inactivated calf serum (HyClone). Cultures were maintained at 37° C. in humidified 95% air/5% CO2. Medium was changed every other day. Explants were cultured in the presence of VPA or TSA (Sigma). We determined the optimal concentration of both inhibitors by testing increasing doses of VPA (from 0.75 mM to 3 mM) and TSA (from 50 nM to 200 nM). […] MS275 and NaB (Sigma) were used at 1 μM and 125 μM, respectively. For cell proliferation assay, 10 μM BrdU (Sigma) was added to the medium during the last hour of culture.

[3] = tested on: E13.5 rat pancreatic explants; experiment: Immunohistochemistry and surface-area quantification of cultured pancreatic explants; format: cell-based; settings: for NGN3+ cells: immunohistochemical analysis, day7; for increase in the number of glucagon-expressing cells: immunohistological analysis; for number of insulin+ cells: immunohistology, days 5 and 7; for acinar cell development (surface area occupied by amylase+ cells): vs control
Source text: Dorsal pancreatic buds from E13.5 rat embryos were dissected as described previously (2).
as §2

[4] = tested on: class I and class II HDACs; settings: background, refs 17 and Yoshida et al., 1990; cited from earlier work
[5] = tested on: Total cellular HDAC enzyme activity; experiment: HDAC enzyme activity assay (total cellular HDAC activity of treated explant extracts); format: biochemical; settings: extracts of cultured rat pancreatic explants treated with 1 mM VPA or 100 nM TSA
Experimental: HDAC enzyme activity assay: Total cellular HDAC enzyme activity was measured using an HDAC assay kit (Millipore). Briefly, 2 μg of control or VPA- or TSA-treated cell extracts (prepared as described above) were incubated in a 96-well plate with a fluorometric substrate in HDAC assay buffer for 45 min at 37° C. An activator solution was then added to release the fluorophore from the deacetylated substrates, and fluorescence was measured in a plate-reading fluorimeter (excitation=390 nm, emission detection=460 nm).
To study the role of HDACs in pancreas development, the inventors treated rat pancreatic explants with VPA and TSA. They cultured E13.5 rat pancreases on floating filters at the air-medium interface for 14 days. Under such conditions, acinar and endocrine cells develop in a way that replicates pancreas development in vivo (2, 21). […] They next measured total HDAC activity from day 0 to day 14 and found a 65.4%±1.6% decrease between the two stages.

[6] = tested on: E13.5 rat pancreatic explants; experiment: TUNEL labelling of apoptotic amylase or insulin cells; format: cell-based
Experimental: TUNEL labelling: Terminal deoxynucleotidyltransferase-mediated dUTP-biotin nick end labeling (TUNEL) experiments were performed using an in situ cell death detection kit (Roche) and followed by insulin and amylase immunostaining.
The effects of HDACi treatment on pancreatic differentiation are independent of proliferation and apoptosis: The observed effects of HDACi on pancreatic development could be attributed to a direct effect of HDAC inhibition on the differentiation program itself or to an indirect effect on proliferation/apoptosis. First, the inventors asked whether the massive increase in the number of NGN3+ cells was accompanied by an increased proliferation of early PDX1+ pancreatic precursor cells that would give rise to more NGN3+ endocrine progenitor cells (20). Thus, they cultured pancreases for 1 day with or without VPA and TSA and added BrdU to the medium during the last hour of culture. No difference in BrdU incorporation was seen. The percentage of PDX1+/BrdU+ was 30.4±1.4% in control conditions, 29.3±2.3% with VPA and 31.9±1.4% in TSA-treated pancreases. They next determined whether the greater number of NGN3+ cells was associated with increased proliferation of such cells. […] Given the observed increase in glucagon-expressing cells with HDACi treatment, the inventors also tested for increased proliferation of such cells. […]

[7] = tested on: E13.5 rat pancreatic explants; experiment: Morphology of pancreases cultured with HDACi; format: cell-based; settings: for morphology of cultured pancreas (branching, cystic structures, acinar structures): after 7 days of culture
Source text: as §2
HDACi treatment suppresses acinar differentiation and promotes ductal differentiation: The inventors first compared the morphology of pancreases cultured in the presence or absence of HDACi.

[8] = tested on: E13.5 rat pancreatic explants; experiment: In situ hybridization of Ngn3 transcripts in cultured pancreatic explants; format: cell-based; settings: day5
Experimental: In situ hybridization: In situ hybridization was performed as previously described (15) and colorimetric development was performed with 5-bromo-4-chloro-3-indolyl phosphate (Promega) and nitroblue tetrazolium (Roche). No signal was obtained when a sense riboprobe was used.

[9] = tested on: E13.5 rat pancreatic explants; experiment: BrdU incorporation cell proliferation assay in pancreatic explants; format: cell-based; settings: for proliferative rate for glucagon+ cells: 5-day treatment, vs controls; for percentage of PDX1+/BrdU+: 1 day of culture, BrdU during last hour, control 30.4±1.4%; for proliferation of NGN3+ cells: after 3 days of culture
Experimental: as §1
Immunohistochemistry and quantification: Tissues were fixed in 10% formalin, pre-embedded in low gelling agarose and embedded in paraffin. All sections (4 μm thick) of each pancreatic explant were collected and processed for immunohistochemistry, as described previously (14, 46). Antibodies were used at the following dilutions: mouse anti-insulin (Sigma, 1/2000), guinea pig anti-insulin (DAKO, 1/200), mouse anti-glucagon (Sigma, 1/2000), rabbit anti-amylase (Sigma, 1/300), goat anti-osteopontin/SPP1 (R&D systems, 1/200), rabbit anti-PDXI ((14), 1/1000), mouse anti-BrdU (Amersham, ½), rabbit anti-Ngn3 ((21), 1/1000). The fluorescent secondary antibodies were: fluorescein anti-rabbit and anti-goat antibodies (Jackson Immunoresearch, 1/200), Texas-red anti-mouse antibody (Jackson Immunoresearch, 1/200) Alexa fluor 488 anti-rabbit antibody (Biogenex, 1/400) and AMCA anti-guinea pig antibody (Jackson Immunoresearch, 1/200). Nuclei were stained blue with Hoechst 33342 (0.3 μg/ml, Invitrogen). Ngn3 detection was perfointed as previously described (21) using the Vectastain elite ABC kit (Vector Laboratories). Photographs were taken using a fluorescence microscope (Leitz DMRB, Leica) and digitized using cooled 3CCD cameras (C5810 or C7780, Hamamatsu). The surface area of each staining was quantified with IPLab (Scanalytics). The surface areas per section were summed to obtain the total surface area per explant in mm2. At least three explants were analyzed per condition and results are expressed as means±SEM. Statistical significance was determined using Student's t test.
Thus, they cultured pancreases for 1 day with or without VPA and TSA and added BrdU to the medium during the last hour of culture.

[10] = real-time PCR, 7 days of culture

SMILES | NeuroD1 expression ([1]; real-time PCR) | insulin expression [1, 10] | somatostatin expression [1, 10] | Arx expression enhanced ([1]; real-time PCR) | Ngn3 expression peak, higher than in controls ([1]; real-time PCR) | increase in PP expression ([1]; real-time PCR) | increase in glucagon expression ([1]; real-time PCR) | SPP1 expression ([1]; real-time PCR) | Ngn3 expression profile ([1]; real-time PCR) | Pax4 expression ([1]; real-time PCR) | increase in levels of Mist1 ([1]; real-time PCR) | increase in levels of P48 ([1]; real-time PCR) | increase in levels of amylase ([1]; real-time PCR) | NGN3+ cells [3] | increase in the number of glucagon-expressing cells [3] | number of insulin+ cells [3] | acinar cell development (surface area occupied by amylase+ cells) [3] | HDAC class selectivity [4] | decrease in HDAC activity [5] | morphology of cultured pancreas (branching, cystic structures, acinar structures) [7] | other results
CC(/C=C/C(=O)NO)=C\[C@@H](C)C(=O)c1ccc(N(C)C)cc1 [TSA, trichostatin A] | strongly activated | no differences | no differences | ~11 fold | 14 fold | 6 fold | 25 fold | major increase | dramatic increase | strongly activated | strongly reduced | strongly reduced | strongly reduced | many were present | 4 fold | no differences | much lower | inhibits both class I and class II HDACs | 99.2%±0.9% | the tips of the branched epithelium formed cystic structures | somatostatin expression ([1]; after 14 days in culture, data not shown): increased; insulin expression increased compared with controls ([1]; real-time PCR, day9): 2 fold; insulin expression increased compared with controls ([1]; real-time PCR, day11): 3 fold; insulin expression increased compared with controls ([1]; real-time PCR, day14): 5 fold; concentrations that result in increased cell death [2]: above 125 nM; number of apoptotic cells expressing amylase or insulin ([6]; TUNEL method): neither VPA nor TSA treatments modified the number of apoptotic cells; morphology: translucent buds at the periphery of the pancreas ([7]; after 11 days of culture): developed translucent buds; Ngn3 mRNA expression by in situ hybridization [8]: enhanced Ngn3 expression; proliferative rate for glucagon+ cells [9]: no difference; percentage of PDX1+/BrdU+ [9]: 31.9±1.4%; proliferation of NGN3+ cells [9]: neither VPA nor TSA increased the proliferation
CCCC(CCC)C(=O)O [VPA, valproic acid] | significantly lower | dramatic decrease | almost full abolition | around 3 fold | 14 fold | 4 fold | 5 fold | major increase | dramatic increase | dramatic decrease | strongly reduced | strongly reduced | strongly reduced | many were present | 4 fold | major decrease | much lower | preferentially targets class I HDACs | 93.2%±2.3% | the tips of the branched epithelium formed cystic structures | insulin expression ([1]; tissues cultured for 14 days): remained dramatically low; insulin+ cells observed immunohistochemically ([3]; tissues cultured for 14 days): Few; number of apoptotic cells expressing amylase or insulin [6]: neither VPA nor TSA treatments modified the number of apoptotic cells; Ngn3 mRNA expression by in situ hybridization [8]: enhanced Ngn3 expression; proliferative rate for glucagon+ cells [9]: no difference; percentage of PDX1+/BrdU+ [9]: 29.3±2.3%; proliferation of NGN3+ cells [9]: neither VPA nor TSA increased the proliferation
Nc1ccccc1NC(=O)c1ccc(CNC(=O)OCc2cccnc2)cc1 [MS275] | – | – | – | – | – | – | – | – | – | – | – | – | – | – | – | – | – | – | – | – | endocrine β/δ lineage [1]: results similar to those with VPA
CCCC(=O)[O-].[Na+] [NaB, sodium butyrate] | – | – | – | – | – | – | – | – | – | – | – | – | – | – | – | – | – | – | – | – | endocrine β/δ lineage [1]: results similar to those with TSA
